# According to patent US20080107619A1, “Carbohydrate based cellulase inhibitors as feeding stimulants in termites” (University of Florida Research Foundation, Inc., priority 2006, published 2008):
# “Also recorded” adds a separate entry of the source.
# Tested on: R. flavipes worker termites
# Assay: No-choice Petri dish in vivo feeding bioassay (feeding and mortality, 24 days)
# Details: for Average Feeding in mg per Live Termite (std. err.) days 1-8 / Average Feeding in mg per Live Termite (std. err.) days 9-16 / Average Feeding in mg per Live Termite (std. err.) days 17-24 / Normalized Avg. Totals: 1st ROUND (lab colony); for Normalized Avg. Totals: relative to control [0] average
# Procedure: R. flavipes colonies were collected from the University of Florida campus during spring and summer 2006. Colonies were maintained in sealed plastic boxes (30×24×10 cm) at 22±1° C. and 69±1% RH. Colonies were maintained without soil and provisioned with moist brown paper towels and wood shims. Colonies that were acclimated under the above conditions for <2 months are referred to as “field colonies”, while those held for >6 months are referred to as “lab colonies”. Unless otherwise stated, all studies reported here were run with lab colonies.
# Two different termite colonies were used. A lab colony was used in bioassays that tested the effects of CBI and FMG; this was the same colony used in cellulase optimization studies, cellulase distribution studies, and for […] determination. The other colony was a field colony, which was used to repeat the FMG assay along side FMCB. The no-choice feeding bioassay was derived from a previously-developed and slightly modified caste differentiation assay reported by M. E. Scharf, et al. in “Caste differentiation responses of two sympatric Reticulitermes termite species to juvenile hormone homologs and synthetic juvenoids in two laboratory assays.” Insectes Soc. […] Acad. Sci. USA, 103 (2006) 4499-504.
# Prior to treatment, paper disks 30 were weighed. Treatments and controls were held in complete darkness at approximately 26±1° C. and 69±1% RH. The inhibitor concentrations tested were 75, 50, 25, 10, 5, 1, 0.5, and 0.1 mM (approximately […] wt/wt). For each inhibitor, paper disks were treated with 50 μl of a given concentration. Control disks received 50 μl methanol alone. Treated papers were allowed to dry in a fume hood for 30 min before placing in dishes, wetting with 25 μl water, and adding 15 termites.
# Termite feeding on the filter papers was readily observable and quantifiable from the bioassays. Average feeding through the entire bioassay was summed within each replicate and calculated as a percentage of feeding relative to untreated controls, then averaged across replicates.
# The experimental design consisted of three replicate dishes per concentration. All assays were carried out for a total of 24 days. Termite mortality and filter paper moisture were monitored every 4th day. Every 8th day, old paper disks were replaced with new ones. These new filter paper disks were treated with identical inhibitor concentrations. The removed filter paper disks 30, showing the results of termite feeding (FIG. 6), were dried and re-weighed. At the end of each assay, data were summarized as cumulative feeding per live termite and cumulative termite mortality. Data were analyzed by non-parametric t-tests (p<0.05) with commercially-available software for use in statistical analysis, designed by SAS Institute, Cary, N.C.
# FIGS. 7A-7F provide graphic data on in vivo feeding bioassays conducted with the carbohydrate-based cellulase inhibitors to assess the impact on termite feeding and survivorship. Feeding results are expressed as the cumulative percent of untreated controls through 24 days. Mortality results are expressed as percent mortality after 24 days. […] Error bars represent standard error of the mean.
smiles,measurement,setting,value
"OC[C@@H]1[C@@H](O[C@@H]2O[C@H](CO)[C@@H](O)[C@H](O)[C@H]2O)[C@H](O)[C@@H](O)c2nccn21 [CBI, cellobioimidazole]",Average Feeding in mg per Live Termite (std. err.) days 1-8,0.1 mM test conc.,0.44 (0.04) mg per Live Termite
same,Average Feeding in mg per Live Termite (std. err.) days 9-16,0.1 mM test conc.,0.42 (0.11) mg per Live Termite
same,Average Feeding in mg per Live Termite (std. err.) days 17-24,0.1 mM test conc.,0.45 (0.04) mg per Live Termite
same,Normalized Avg. Totals,0.1 mM test conc.,1.98
same,Average Feeding in mg per Live Termite (std. err.) days 1-8,0.5 mM test conc.,0.45 (0.03) mg per Live Termite
same,Average Feeding in mg per Live Termite (std. err.) days 9-16,0.5 mM test conc.,0.51 (0.06) mg per Live Termite
same,Average Feeding in mg per Live Termite (std. err.) days 17-24,0.5 mM test conc.,0.33 (0.04) mg per Live Termite
same,Normalized Avg. Totals,0.5 mM test conc.,1.02
same,Average Feeding in mg per Live Termite (std. err.) days 1-8,1 mM test conc.,0.49 (0.12) mg per Live Termite
same,Average Feeding in mg per Live Termite (std. err.) days 9-16,1 mM test conc.,0.53 (0.03) mg per Live Termite
same,Average Feeding in mg per Live Termite (std. err.) days 17-24,1 mM test conc.,0.35 (0.04) mg per Live Termite
same,Normalized Avg. Totals,1 mM test conc.,1.05
same,Average Feeding in mg per Live Termite (std. err.) days 1-8,5 mM test conc.,0.66 (0.05) mg per Live Termite
same,Average Feeding in mg per Live Termite (std. err.) days 9-16,5 mM test conc.,0.55 (0.11) mg per Live Termite
same,Average Feeding in mg per Live Termite (std. err.) days 17-24,5 mM test conc.,0.40 (0.89) mg per Live Termite
same,Normalized Avg. Totals,5 mM test conc.,1.34
same,Average Feeding in mg per Live Termite (std. err.) days 1-8,10 mM test conc.,0.38 (0.05) mg per Live Termite
same,Average Feeding in mg per Live Termite (std. err.) days 9-16,10 mM test conc.,0.43 (0.05) mg per Live Termite
same,Average Feeding in mg per Live Termite (std. err.) days 17-24,10 mM test conc.,0.33 (0.05) mg per Live Termite
same,Normalized Avg. Totals,10 mM test conc.,1.03
same,Average Feeding in mg per Live Termite (std. err.) days 1-8,25 mM test conc.,0.23 (0.01) mg per Live Termite
same,Average Feeding in mg per Live Termite (std. err.) days 9-16,25 mM test conc.,0.47 (0.44) mg per Live Termite
same,Average Feeding in mg per Live Termite (std. err.) days 17-24,25 mM test conc.,0.39 (0.01) mg per Live Termite
same,Normalized Avg. Totals,25 mM test conc.,0.95
same,Average Feeding in mg per Live Termite (std. err.) days 1-8,50 mM test conc.,0.17 (0.03) mg per Live Termite
same,Average Feeding in mg per Live Termite (std. err.) days 9-16,50 mM test conc.,0.41 (0.05) mg per Live Termite
same,Average Feeding in mg per Live Termite (std. err.) days 17-24,50 mM test conc.,0.38 (0.03) mg per Live Termite
same,Normalized Avg. Totals,50 mM test conc.,0.85
same,highest mortality observed,"0.05 and 0.2% concentrations, after 24 days, FIG. 10B",around 20%
same,Average Feeding in mg per Live Termite (std. err.) days 1-8,75 mM test conc.,0.16 (0.01) mg per Live Termite
same,Average Feeding in mg per Live Termite (std. err.) days 9-16,75 mM test conc.,0.24 (0.05) mg per Live Termite
same,Average Feeding in mg per Live Termite (std. err.) days 17-24,75 mM test conc.,0.27 (0.01) mg per Live Termite
same,Normalized Avg. Totals,75 mM test conc.,0.59
same,mortality,"1-5 mM (0.05-0.2% wt/wt), after 24 days",approximately 20%
same,Effect on feeding (cumulative percent of untreated controls through 24 days),"across tested concentrations 0.1-75 mM, FIGS. 7A-7C, 8A-8B","both inhibitory and stimulatory effects, depending on concentration; also recorded: either inhibitory or stimulatory to feeding, depending on concentration"
same,cumulative termite mortality (comparison between inhibitors),"after 24 days, FIGS. 7D-7F, 10A-10B",substantially greater than the mortality caused by FMG
same,"mortality, one replicate","one replicate of the 0.05% concentration, after 24 days",over 30%
